Measured values reported in ChEMBL document CHEMBL5360560, “Anti-Vibrio potential of natural products from marine microorganisms” (Eur J Med Chem, 2023).
In brackets after ≈: the same amount, converted by molar mass. Each block holds one compound with its values, some of them ahead of it.

Assays:
Vibrio parahaemolyticus [1] = assay: Antimicrobial activity against Vibrio parahaemolyticus assessed as bacterial growth inhibition; assay type: functional
Vibrio anguillarum [2] = assay: Antimicrobial activity against Vibrio anguillarum assessed as bacterial growth inhibition by microplate reader assay; assay type: functional
Vibrio harveyi [3] = assay: Antimicrobial activity against Vibrio harveyi assessed as bacterial growth inhibition by microplate reader assay; assay type: functional
Vibrio anguillarum [4] = assay: Antimicrobial activity against Vibrio anguillarum QDIO-6 assessed as bacterial growth inhibition by microtiter plate assay; assay type: functional
Vibrio anguillarum [5] = assay: Antimicrobial activity against Vibrio anguillarum assessed as bacterial growth inhibition by broth dilution assay; assay type: functional
Vibrio alginolyticus [6] = assay: Antimicrobial activity against Vibrio alginolyticus assessed as bacterial growth inhibition by broth dilution assay; assay type: functional
Vibrio parahaemolyticus [7] = assay: Antimicrobial activity against Vibrio parahaemolyticus assessed as bacterial growth inhibition by broth dilution assay; assay type: functional
Vibrio vulnificus [8] = assay: Antimicrobial activity against Vibrio vulnificus MCCC E1758 assessed as bacterial growth inhibition by resazurin dye based assay; assay type: functional
Vibrio harveyi [9] = assay: Antibacterial activity against Vibrio harveyi assessed as bacterial growth inhibition; assay type: functional
Vibrio anguillarum [10] = assay: Antibacterial activity against Vibrio anguillarum assessed as bacterial growth inhibition; assay type: functional
Vibrio harveyi [11] = assay: Antimicrobial activity against Vibrio harveyi assessed as bacterial growth inhibition; assay type: functional
Vibrio anguillarum [12] = assay: Antimicrobial activity against Vibrio anguillarum assessed as bacterial growth inhibition; assay type: functional
Vibrio anguillarum [13] = assay: Antimicrobial activity against Vibrio anguillarum assessed as zone of inhibition per disc at 100 ug measured after 24 hrs by disc diffusion assay; assay type: functional; conditions: read-out: IZ
Vibrio harveyi [14] = assay: Antimicrobial activity against Vibrio harveyi BB120 assessed as bacterial growth inhibition by bioluminescence based Quorum-Sensing assay; assay type: functional, organism-based
Vibrio parahaemolyticus [15] = assay: Antimicrobial activity against Vibrio parahaemolyticus assessed as zone of inhibition; assay type: functional
Vibrio alginolyticus [16] = assay: Antimicrobial activity against Vibrio alginolyticus assessed as zone of inhibition; assay type: functional
Vibrio vulnificus [17] = assay: Antimicrobial activity against Vibrio vulnificus assessed as bacterial growth inhibition; assay type: functional

SMILES: CC[C@H]1/C=C/CC[C@@H](C)[C@H](O)C[C@H]([C@@H](CO)C[C@H](C)CC[C@H](O)[C@H](C)/C=C/[C@H](O)C(C)C)OC(=O)/C=C/[C@](C)(O)[C@H](O)CCC[C@@H](O)[C@H](C)CC1
MIC (Vibrio parahaemolyticus [1]): 1.56 mg/L

SMILES: C[C@@H]1CC[C@@H]2[C@H](C=C[C@](C)(O)[C@@]2(C)C(=O)CCO)C1
MIC (Vibrio anguillarum [2]): 4 mg/L | MIC (Vibrio harveyi [3]): 4 mg/L

SMILES: COC(=O)[C@H](O)CS[C@@H]1CCCCCCC[C@@H](C)OC(=O)C1
MIC (Vibrio anguillarum [4]): 2 mg/L

SMILES: CCOC(=O)Cc1cc(OC)cc(OC)c1C(=O)CC
MIC (Vibrio vulnificus [8]): 15.6 mg/L (≈ 55.7 µM)

SMILES: CCCCCc1cc(O)c2ccccc2n1
MIC (Vibrio harveyi [9]): 4 mg/L (≈ 18.6 µM)

SMILES: C[C@H](Cl)[C@@H](O)C1=C[C@H](O)[C@@H](C)OC1=O [CHLOROHYDROASPYRONE B]
MIC (Vibrio harveyi [9]): 32 mg/L (≈ 145 µM) | MIC (Vibrio anguillarum [10]): 0.5 mg/L

SMILES: CCCCc1cc(O)c2ccccc2n1
MIC (Vibrio harveyi [9]): 0.5 mg/L (≈ 2.48 µM)

SMILES: C[C@H]1CC[C@H]2[C@@H](C=C[C@H](C)[C@]2(C)C(=O)CCO)[C@@H]1O
MIC (Vibrio anguillarum [2]): 4 mg/L | MIC (Vibrio harveyi [3]): 4 mg/L

SMILES: C[C@@H]1CCCCC2=C(O)C(=O)C[C@H]2C(=O)O1
MIC (Vibrio anguillarum [4]): 2 mg/L

SMILES: C=C(C)[C@H]1COc2c(C)cc3oc4c([C@@H](OC)[C@@H](O)C(=C)C)ccc(O)c4c(=O)c3c2[C@@H]1OC(C)=O
MIC (Vibrio anguillarum [5]): 1.56 µM | MIC (Vibrio alginolyticus [6]): 1.56 µM | MIC (Vibrio parahaemolyticus [7]): 1.56 µM

SMILES: C=C(C)[C@H]1COc2c(C)cc3oc4c(C[C@H](O)C(C)(C)O)ccc(O)c4c(=O)c3c2[C@@H]1O [TAJIXANTHONEHYDRATE]
MIC (Vibrio anguillarum [5]): 1.56 µM | MIC (Vibrio alginolyticus [6]): 1.56 µM | MIC (Vibrio parahaemolyticus [7]): 1.56 µM

SMILES: O=C1N[C@H](Cc2ccccc2)C(=O)N2CCC[C@@H]12
zone of inhibition at 100 µg/disc (Vibrio anguillarum [13]): 24 mm

SMILES: C[C@@H](O)CCCCC[C@H](C)[C@@H]1C=CC(=O)O1
MIC (Vibrio parahaemolyticus [7]): 25 µM

SMILES: COc1cc(O)c2c(c1)C(=O)C1=C(C2=O)[C@H](O)[C@@H](O)[C@@](C)(O)C1
MIC (Vibrio parahaemolyticus [1]): 25 µM

SMILES: O=C(/C=C/CCl)O[C@@H]1COC(=O)C1
IC50 (Vibrio harveyi [14]): 5.6 µM

SMILES: CCCCCC(=O)NCCc1ccccc1
IC50 (Vibrio harveyi [14]): 99 µM

SMILES: COc1c(Cl)c(O)cc2c1C(=O)c1c(O)cc(COC(C)=O)cc1C2=O
MIC (Vibrio parahaemolyticus [7]): 10 µM

SMILES: CC(C)(O)[C@H](O)CC[C@]1(C)[C@@H](O)CC[C@@]2(C)[C@H]1CC[C@H]1Cc3c([nH]c4ccccc34)[C@@]12C
MIC (Vibrio anguillarum [5]): 3.1 µM | MIC (Vibrio alginolyticus [6]): 3.1 µM | MIC (Vibrio parahaemolyticus [7]): 6.3 µM

SMILES: CC(C)C[C@H]1NC(=O)[C@H]2C[C@H](O)CN2C1=O
inhibition zone (IZ) (Vibrio parahaemolyticus [15]): 14 mm | inhibition zone (IZ) (Vibrio alginolyticus [16]): 22 mm

SMILES: CC(O)C(Cl)C1=C[C@H]([C@H](C)O)OC1=O (stereo partly drawn)
MIC (Vibrio harveyi [9]): 32 mg/L (≈ 145 µM) | MIC (Vibrio anguillarum [10]): 0.5 mg/L

SMILES: C[C@H]1[C@H]([C@@]2(C)CCC([C@](C)(O)CO)O2)CC[C@@]1(C)O (stereo partly drawn)
inhibition zone (IZ) (Vibrio parahaemolyticus [15]): 6.2 mm

SMILES: CCC[C@@H]1C(C)=C[C@@H]2C[C@H](C)CC[C@H]2[C@]1(C)C(=O)C1=C(O)C(=O)NC1=O
MIC (Vibrio anguillarum [12]): 12.5 mg/L

Further lines, with some results ahead:

MIC (Vibrio harveyi [3]): 8 mg/L
SMILES: CC(C)/C=C1\NC(=O)[C@H](CCC(N)=O)n2c1nc1ccccc1c2=O [AURANTIOMIDE C]

MIC (Vibrio anguillarum [5]): 1.56 µM | MIC (Vibrio alginolyticus [6]): 1.56 µM
SMILES: C=C(C)[C@H]1COc2c(C)cc3oc4c([C@@H](OC)[C@@H](O)C(C)(C)O)ccc(O)c4c(=O)c3c2[C@@H]1OC(C)=O
MIC (Vibrio parahaemolyticus [7]): 1.56 µM

MIC (Vibrio anguillarum [5]): 5 mg/L
SMILES: COc1cc(O)c2c(c1)C(=O)C1=C(C[C@@H](O)[C@@](C)(O)C1)C2=O [ALTERSOLANOL B]
MIC (Vibrio parahaemolyticus [1]): 25 µM | MIC (Vibrio parahaemolyticus [7]): 2.5 mg/L

MIC (Vibrio anguillarum [5]): 1.56 µM | MIC (Vibrio alginolyticus [6]): 1.56 µM
SMILES: C=C(C)[C@H]1COc2c(C)cc3oc4c([C@@H](OC)[C@@H](O)C(=C)C)ccc(O)c4c(=O)c3c2[C@@H]1O
MIC (Vibrio parahaemolyticus [7]): 1.56 µM

MIC (Vibrio anguillarum [5]): 25 mg/L | MIC (Vibrio alginolyticus [6]): 25 mg/L
SMILES: C/C(=C\[C@H]1OC(=O)[C@H](C)[C@@H]1C)[C@H]1CCC2=C3C=CC4=CC(=O)CC[C@]4(C)[C@H]3CC[C@@]21C
MIC (Vibrio parahaemolyticus [7]): 25 mg/L

MIC (Vibrio anguillarum [5]): 12.5 µM | MIC (Vibrio alginolyticus [6]): 12.5 µM
SMILES: CC(=O)O[C@H]1CC[C@@]2(C)[C@@H](CC[C@H]3Cc4c([nH]c5ccccc45)[C@@]32C)[C@]1(C)CC[C@@H](O)C(C)(C)O
MIC (Vibrio parahaemolyticus [7]): 12.5 µM

MIC (Vibrio harveyi [11]): 65 mg/L (≈ 342 µM) | MIC (Vibrio anguillarum [12]): 65 µM
SMILES: CC(C)=CCc1ccc(O)c(C=O)c1

MIC (Vibrio harveyi [11]): 65 mg/L (≈ 216 µM) | MIC (Vibrio anguillarum [12]): 65 µM
SMILES: C/C=C/CC/C=C/c1c(O)cc(CC=C(C)C)c(O)c1C=O

MIC (Vibrio harveyi [3]): 8 mg/L
SMILES: COC(=O)CC[C@H]1C(=O)N/C(=C\C(C)C)c2nc3ccccc3c(=O)n21

MIC (Vibrio anguillarum [2]): 4 mg/L | MIC (Vibrio harveyi [3]): 4 mg/L
SMILES: C[C@H]1C[C@H](O)[C@H]2[C@@H](C=C[C@@](C)(O)[C@]2(C)C(=O)CCO)C1

MIC (Vibrio anguillarum [10]): 10 µM
SMILES: CC(C)CCC[C@@](C)(O)c1ccc(C(=O)O)cc1O
MIC (Vibrio parahaemolyticus [1]): 5 µM

MIC (Vibrio vulnificus [17]): 32 mg/L (≈ 135 µM)
SMILES: COc1cc(O)c2c(=O)c(C)c(C)oc2c1O

MIC (Vibrio harveyi [3]): 8 mg/L
SMILES: CC(C)/C=C1/NC(=O)[C@H](CCC(N)=O)n2c1nc1ccccc1c2=O

MIC (Vibrio harveyi [11]): 32 mg/L (≈ 96.6 µM) | MIC (Vibrio anguillarum [12]): 20 µM
SMILES: O=C(O)c1cn(C2CC2)c2cc(N3CCNCC3)c(F)cc2c1=O [CIPROFLOXACIN]
zone of inhibition at 100 µg/disc (Vibrio anguillarum [13]): 26 mm
